Broadly, the IC50 is the concentration at which inhibition is half-maximal.

Drawing on US9359308B2, “Pyrazine kinase inhibitors” (Portola Pharmaceuticals, Inc., priority 2011, dated 2016), this text covers IC50 for 26 compounds.

In the assay the target is T1, full length active recombinant SYK enzyme (Homo sapiens, UniProt P43405).
T1 construct: full length active recombinant SYK enzyme (Millipore, Calif.); purchased Millipore
Briefly: Inhibition of Syk tyrosine phosphorylation activity (LANCE TR-FRET kinase assay). The class given is biochemical. Conditions: activity in the Syk assays, class symbols. A digest of the protocol:
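1 nM full-length active recombinant SYK phosphorylated 550 nM biotin-DEEDYESP-OH with 100 μM ATP in 50 mM Tris pH 7.5, 5 mM MgCl2, 1 mM DTT and 3% DMSO for 1 h at room temperature. After EDTA quench, Eu-anti-phosphotyrosine/SA-APC TR-FRET was read after 1 h. IC50s came from non-linear regression.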
Background: In TR-FRET formats the signal depends on donor and acceptor labels being close together.
As for `CN(C)C(=O)c1ccc(Nc2nc(N[C@@H]3CCCC[C@@H]3N)cnc2C(N)=O)cc1Cl` [Example 279, 5-((1R,2S)-2-aminocyclohexylamino)-3-(3-chloro-4-(dimethylcarbamoyl)phenylamino)pyrazine-2-carboxamide], the IC50 lay in the range of 10 to 100 nM.

Regarding `CC[C@@H](Nc1cnc(C(N)=O)c(Nc2cccc3ncccc23)n1)C(N)=O` [Example 375, (R)-5-(1-amino-1-oxobutan-2-ylamino)-3-(quinolin-5-ylamino)pyrazine-2-carboxamide], the IC50 lay in the range of 1 to 10 nM. As for `NC(=O)c1ncc(N[C@@H]2CCCC(F)(F)[C@@H]2N)nc1Nc1ccccc1` [Example 17, 5-((1R,2R)-2-amino-3,3-difluorocyclohexylamino)-3-(phenylamino)pyrazine-2-carboxamide], the figure is 10 to 100 nM.

Consider `NC(=O)c1ncc(N[C@@H]2CCCC[C@@H]2N)nc1Nc1ccc(-n2cccn2)cc1` [Example 276, 3-(4-(1H-pyrazol-1-yl)phenylamino)-5-((1R,2S)-2-aminocyclohexylamino)pyrazine-2-carboxamide], for which the IC50 was in the range of 1 to 10 nM.

As to `CCc1cc(Nc2nc(N[C@@H](C(N)=O)C(C)(C)C)cnc2C(N)=O)sn1` [Example 236, (R)-5-(1-amino-3,3-dimethyl-1-oxobutan-2-ylamino)-3-(3-ethylisothiazol-5-ylamino)pyrazine-2-carboxamide], the concentration for half-maximal inhibition (IC50) was in the range of 10 to 100 nM.

For `CN(C)C(=O)c1cc(Nc2nc(N[C@@H]3CCCC[C@@H]3N)cnc2C(N)=O)sn1` [Example 248, 5-(6-((1R,2S)-2-aminocyclohexylamino)-3-carbamoylpyrazin-2-ylamino)-N,N-dimethylisothiazole-3-carboxamide], the IC50 was in the range of 1 to 10 nM.

In the case of `CC[C@@H](Nc1cnc(C(N)=O)c(Nc2ccc(-c3cnn(C)c3)cc2)n1)C(N)=O` [Example 359, (R)-5-(1-amino-1-oxobutan-2-ylamino)-3-(4-(1-methyl-1H-pyrazol-4-yl)phenylamino)pyrazine-2-carboxamide], the IC50 lay in the range of 1 to 10 nM.

As to `CNC1(CNc2cnc(C(N)=O)c(Nc3ccc4ncccc4c3)n2)CC1` [Example 129, 5-(((1-(methylamino)cyclopropyl)methyl)amino)-3-(quinolin-6-ylamino)pyrazine-2-carboxamide], the IC50 is 1 to 10 nM. The value for `CCC(=O)N1CCC(c2ccc(Nc3nc(N[C@@H]4CCCC[C@@H]4N)cnc3C(N)=O)cc2)CC1` [Example 438, 5-(((1R,2S)-2-aminocyclohexyl)amino)-3-((4-(1-propionylpiperidin-4-yl)phenyl)amino)pyrazine-2-carboxamide] was 1 to 10 nM; that for `Cc1ccc(Nc2nc(N[C@@H]3CCCC(F)(F)[C@@H]3N)cnc2C(N)=O)cc1C` [Example 169, 5-((1R,2R)-2-amino-3,3-difluorocyclohexylamino)-3-(3,4-dimethylphenylamino)pyrazine-2-carboxamide] was 1 to 10 nM; that for `COc1ccc(Nc2nc(N[C@@H](C(N)=O)C(C)C)cnc2C(N)=O)cn1` [Example 326, (R)-5-(1-amino-3-methyl-1-oxobutan-2-ylamino)-3-(6-methoxypyridin-3-ylamino)pyrazine-2-carboxamide] was 10 to 100 nM.

Turning to `CN1C(=O)COc2ccc(Nc3nc(N[C@@H]4CCCC(F)(F)[C@@H]4N)cnc3C(N)=O)cc21` [Example 230, 5-((1R,2R)-2-amino-3,3-difluorocyclohexylamino)-3-(4-methyl-3-oxo-3,4-dihydro-2H-benzo[b][1,4]oxazin-6-ylamino)pyrazine-2-carboxamide], the IC50 lay in the range of 10 to 100 nM.

Consider `CC(C)C[C@@H](Nc1cnc(C(N)=O)c(Nc2ccc3ncccc3c2)n1)C(N)=O` [Example 2, (R)-5-(1-amino-4-methyl-1-oxopentan-2-ylamino)-3-(quinolin-6-ylamino)pyrazine-2-carboxamide], for which the IC50 was 1 to 10 nM.

With `CC(=O)N1CCN(c2ccc(Nc3cnc(C(N)=O)c(NC4CC4)n3)cc2)CC1` [Example 60, 5-(4-(4-acetylpiperazin-1-yl)phenylamino)-3-(cyclopropylamino)pyrazine-2-carboxamide], the IC50 is above 1000 nM. The value for `NC(=O)c1ncc(N[C@@H]2CCCC(F)(F)[C@@H]2N)nc1Nc1cnc2cc(F)ccc2c1` [Example 227, 5-((1R,2R)-2-amino-3,3-difluorocyclohexylamino)-3-(7-fluoroquinolin-3-ylamino)pyrazine-2-carboxamide] was 10 to 100 nM; that for `CCc1cc(Nc2nc(N[C@@H]3CCCC(F)(F)[C@@H]3N)cnc2C(N)=O)ccn1` [Example 355, 5-((1R,2R)-2-amino-3,3-difluorocyclohexylamino)-3-(2-ethylpyridin-4-ylamino)pyrazine-2-carboxamide] was 10 to 100 nM; that for `CC(C)[C@@H](Nc1cnc(C(N)=O)c(Nc2ccc(-c3ccccn3)cc2)n1)C(N)=O` [Example 209, (R)-5-(1-amino-3-methyl-1-oxobutan-2-ylamino)-3-(4-(pyridin-2-yl)phenylamino)pyrazine-2-carboxamide] was 10 to 100 nM. As for `CC(C)[C@@H](Nc1cnc(C(N)=O)c(Nc2ccc(-n3ccnc3)cc2)n1)C(N)=O` [Example 149, (R)-3-(4-(1H-imidazol-1-yl)phenylamino)-5-(1-amino-3-methyl-1-oxobutan-2-ylamino)pyrazine-2-carboxamide], the figure is 10 to 100 nM.

Take `NC(=O)c1ncc(N[C@@H]2CCCC[C@@H]2N)nc1Nc1snc2sccc12` [Example 252, 5-((1R,2S)-2-aminocyclohexylamino)-3-(thieno[2,3-c]isothiazol-3-ylamino)pyrazine-2-carboxamide]: the IC50 was below 1 nM. As for `NC(=O)c1ncc(N[C@@H]2CCNC2)nc1Nc1csc2ncccc12` [Example 106, (R)-5-(pyrrolidin-3-ylamino)-3-(thieno[2,3-b]pyridin-3-ylamino)pyrazine-2-carboxamide], the figure is 1 to 10 nM; as for `CC[C@@H](Nc1cnc(C(N)=O)c(Nc2ccnc(C3CC3)c2)n1)C(N)=O` [Example 342, (R)-5-(1-amino-1-oxobutan-2-ylamino)-3-(2-cyclopropylpyridin-4-ylamino)pyrazine-2-carboxamide], below 1 nM. For the compound `NC(=O)c1ncc(N[C@@H]2CCNC2)nc1Nc1cccnc1` [Example 113, (R)-3-(pyridin-3-ylamino)-5-(pyrrolidin-3-ylamino)pyrazine-2-carboxamide], the IC50 lay in the range of 10 to 100 nM. The value for `COc1cc(Nc2nc(N[C@@H]3CCCC(F)(F)[C@@H]3N)cnc2C(N)=O)ccn1` [Example 331, 5-((1R,2R)-2-amino-3,3-difluorocyclohexylamino)-3-(2-methoxypyridin-4-ylamino)pyrazine-2-carboxamide] was 10 to 100 nM; that for `COc1ccc(Nc2nc(N[C@@H]3CCCC(F)(F)[C@@H]3N)cnc2C(N)=O)cn1` [Example 330, 5-((1R,2R)-2-amino-3,3-difluorocyclohexylamino)-3-(6-methoxypyridin-3-ylamino)pyrazine-2-carboxamide] was 100 to 1000 nM; that for `CC(C)C[C@@H](Nc1cnc(C(N)=O)c(Nc2cccc3c2ccn3C)n1)C(N)=O` [Example 3, (R)-5-(1-amino-4-methyl-1-oxopentan-2-ylamino)-3-(1-methyl-1H-indol-4-ylamino)pyrazine-2-carboxamide] was 1 to 10 nM. For the compound `NC(=O)CNc1cnc(C(N)=O)c(Nc2ccc3ncccc3c2)n1` [Example 382, 5-(2-amino-2-oxoethylamino)-3-(quinolin-6-ylamino)pyrazine-2-carboxamide], the IC50 is 10 to 100 nM.
